Data as given in patent US12589092B2, “Polycyclic compound acting as kinase inhibitor” (HANGZHOU INNOGATE PHARMA CO., LTD., priority 2020, dated 2026).
Like-named read-outs stand apart in the source and are kept apart here.

Legend:
CDK16/CycY = CDK16/CycY (Homo sapiens, UniProt Q00536); experiment: CDK16 kinase activity inhibition assay (ADP-Glo); assay type: biochemical; settings: read-out: CDK16 kinase inhibitory activity (IC50)
Experimental: (§1) 3) CDK5, CDK9 and CDK16 Kinase Activity Inhibition Assay
(§2) CDK5/p35NCK, CDK9/CycT1 and CDK16/CycY protein kinase activities were determined using the ADP-Glo Kinase Assay. Dilute the positive compound and the test compound (10 mM stock solution) 25-fold with 100% DMSO, make a 4-fold serial dilution in a 96-well dilution plate, and add 1 μL of the compound to 49 μL of kinase reaction buffer (1 mM Tris, 20 mM MgCl2, 0.10% BSA and 0.5 mM DTT) on a microplate shaker for 20 min. Transfer 2 μL of 2× kinase to the 384-well reaction plate, add 1 μL of the test compound to the 384-well reaction plate, centrifuge at 1000 rpm/min for 1 min, and incubate at 25° C. for 10 min. Transfer 1 μL of the 4× substrate mix to the 384-well reaction plate, centrifuge at 1000 rpm/min for 1 min, and incubate at 25° C. for 60 min. Transfer 4 μL of ADP-Glo to the 384-well reaction plate to centrifuge at 1000 rpm/min for 1 min, and incubate at 25° C. for 40 min. Transfer 8 μL of detection solution to the 384-well reaction plate to centrifuge at 1000 rpm/min for 1 min, and incubate at 25° C. for 40 min. The RLU (Relative luminescence unit) signal was read using a Biotek multifunctional plate reader. Signal intensity is used to characterize the degree of kinase activity. Compound inhibition rate data: % inhibition rate=[1−(compound mean RLU−positive control mean RLU)/(negative control mean RLU−positive control mean RLU)]*100. Taking the log value of the concentration as the X axis and the percentage inhibition rate as the Y axis, the log(inhibitor) vs. response-Variable slope of the analysis software GraphPad Prism 5 was used to fit the dose-response curve to obtain the IC50 value of each compound on the enzyme activity.

CDK4/CycD3 = CDK4/CycD3 (Homo sapiens, UniProt P11802); experiment: CDK4 kinase activity inhibition assay (caliper mobility shift); assay type: biochemical; settings: CDK4/CycD3 10 nM, ATP 221 μM; read-out: CDK4 kinase inhibitory activity (IC50)
Experimental: (§3) 1) CDK2, CDK4 and CDK6 Kinase Activity Inhibition Assay
(§4) In vitro enzymatic activity of the CDK isoforms CDK2/CycA2, CDK4/CycD3 and CDK6/cycD3 were measured using caliper mobility shift assay. Dissolve the compounds in DMSO and dilute them with corresponding kinase buffer (CDK2/CycA2 and CDK6/CycD3 were assayed with buffer conditions of 50 mM HEPES (pH 7.5), 10 mM MgCl2, 0.0015% Brij-35 and 2 mM dithiothreitol; CDK4/CycD3 was assayed with buffer condition of 20 mM HEPES (pH 7.5), 10 mM MgCl2, 0.01% Triton X-100 and 2 mM dithiothreitol). Add 5 μl of compound (10% DMSO) with 5 times the final concentration of the reaction to a 384-well plate. […] Collect conversion data on Caliper EZ Reader II (Caliper Life Sciences). Convert the conversion rate into inhibition rate data (% inhibition rate=(max−conversion rate)/(max−min)*100). […] Draw a curve with the concentration and inhibition rate of the compound as abscissa and ordinate, and use XLFit excel add-in version 4.3.1 software to fit the curve and calculate IC50.

CDK2/CycA2 = CDK2/CycA2 (Homo sapiens, UniProt P24941); experiment: CDK2 kinase activity inhibition assay (caliper mobility shift); assay type: biochemical; settings: CDK2/CycA2 12 nM, ATP 39 μM; read-out: CDK2 kinase inhibitory activity (IC50)
Experimental: as §3, §4

CDK9/CycT1 = CDK9/CycT1 (Homo sapiens, UniProt P50750); experiment: CDK9 kinase activity inhibition assay (ADP-Glo); assay type: biochemical; settings: read-out: CDK9 kinase inhibitory activity (IC50)
Experimental: as §1, §2

[1] = Pharmacokinetic study in rats (intragastrical administration, plasma LC-MS/MS); settings: male, SD, rat, po, 3 mg/kg
Experimental: (§5) Instruments: XEVO TQ-S LC/MS instrument produced by Waters. All measurement data is collected and processed by Masslynx V4.1 software, and the data is calculated and processed by Microsoft Excel. Using WinNonLin 8.0 software, the statistical moment method was used to calculate the pharmacokinetic parameters. Mainly include kinetic parameters Tmax, T1/2, Cmax, AUClast etc. Column: ACQUITY UPLC BEH C18 (2.1 mm×50 mm, 1.7 μm); column temperature 40° C.; mobile phase A is water (0.1% formic acid), mobile phase B is acetonitrile, flow rate is 0.350 ml/min, gradient elution is adopted, the elution gradient is 0.50 min: 10% B; 1.50 min: 10% B; 2.30 min: 95% B; 2.31 min: 10% B; 3.00 min: stop. Injection volume: 5 μL.
(§6) Animals: 3 male SD rats with a weight range of 200-220 g. After purchase, they will be kept in the laboratory of the Experimental Animal Center for 2 days and then used. They will be fasted for 12 hours predose and 4 hours after dosing. Drinking water is free during the test. After the rats were gavage, blood samples were taken according to the established time point.
(§7) Solvent: 0.5% Methylcellulose (aqueous solution containing 0.4% Tween 80 and 1% ethanol). Preparation of the solution for intragastrical administration: accurately weigh the compound, add it to the solvent, and use ultrasound at room temperature for 5 minutes to completely dissolve the drug, and prepare a 0.3 mg/ml medicinal solution.
(§8) A single administration was also used to study the pharmacokinetics of the drug sample in rats.
(§9) After intragastrical administration, blood was taken from the orbit at 0.25, 0.5, 1, 2, 4, 9, 12 and 24 hours, and placed in a plastic centrifuge tube pretreated with sodium heparin. After centrifugation, the supernatant plasma was used for LC-MS/MS analysis.
(§10) Accurately weigh the compounds to prepare different concentrations, perform quantitative analysis on mass spectrometry to establish a standard curve, and then test the concentration of the above-mentioned compound in the plasma to obtain the compound concentration at different time points. All measurement data are collected and processed by relevant software, and the statistical moment method is used to calculate the pharmacokinetic parameters (mainly including kinetic parameters Tmax, T1/2, Cmax, AUClast etc).

in vivo = settings: male, SD, rat, po, 3 mg/kg
Experimental: as §5, §6, §7, §8, §9, §10

CDK6/cycD3 = CDK6/cycD3 (Homo sapiens, UniProt Q00534); experiment: CDK6 kinase activity inhibition assay (caliper mobility shift); assay type: biochemical; settings: CDK6/cycD3 15 nM, ATP 800 μM; read-out: CDK6 kinase inhibitory activity (IC50)
Experimental: as §3, §4

CDK5/p35NCK = CDK5/p35NCK (Homo sapiens, UniProt Q00535); experiment: CDK5 kinase activity inhibition assay (ADP-Glo); assay type: biochemical; settings: read-out: CDK5 kinase inhibitory activity (IC50)
Experimental: as §1, §2

TRKA = TRKA (Homo sapiens, UniProt P04629); experiment: TRKA kinase activity inhibition assay (caliper mobility shift); assay type: biochemical
Experimental: 2) TRKA Kinase Activity Inhibition Assay
TRKA protein kinase activity was measured by caliper mobility shift assay. Compounds were dissolved in DMSO to make up 10 mM stock solutions. Prepare 1× kinase reaction buffer to serially dilute compounds. 250 nL 100× final concentration of the test compounds were transferred to destination plate 3573 by dispenser Echo 550. Prepare a 2.5× final concentration of kinase solution with 1× kinase buffer. Add 10 μL of 2.5× final kinase solution to compound wells and positive control wells; add 10 μL of 1× kinase buffer to negative control wells. Centrifuge at 1000 rpm for 30 s, shake and mix the reaction plate and incubate at room temperature for 10 min. Prepare a mixture of ATP and kinase substrate solution at 5/3× final concentration with 1× kinase buffer. The reaction was initiated by adding 15 μL of the mixed solution. Centrifuge the 384-well plate at 1000 rpm for 30 s, shake and mix well, and incubate at room temperature for the corresponding time. Add 30 μL of stop solution to stop the kinase reaction, centrifuge at 1000 rpm for 30 s, mix by shaking, and read the conversion rate data with Caliper EZ Reader. Convert conversion to inhibition data (% inhibition=(max DMSO well conversion−sample well conversion)/(max DMSO well conversion−min negative control conversion)*100). Wherein max refers to the conversion rate of the DMSO control, and min refers to the conversion rate of the non-enzymatic control. Draw a curve with the concentration and inhibition rate of the compound as abscissa and ordinate, and use XLFit excel add-in version 4.3.1 software to fit the curve and calculate IC50.

[2] = read-out: TRKA kinase inhibitory activity (IC50)

Chain of CDK16/CycY (Q00536 whole entry): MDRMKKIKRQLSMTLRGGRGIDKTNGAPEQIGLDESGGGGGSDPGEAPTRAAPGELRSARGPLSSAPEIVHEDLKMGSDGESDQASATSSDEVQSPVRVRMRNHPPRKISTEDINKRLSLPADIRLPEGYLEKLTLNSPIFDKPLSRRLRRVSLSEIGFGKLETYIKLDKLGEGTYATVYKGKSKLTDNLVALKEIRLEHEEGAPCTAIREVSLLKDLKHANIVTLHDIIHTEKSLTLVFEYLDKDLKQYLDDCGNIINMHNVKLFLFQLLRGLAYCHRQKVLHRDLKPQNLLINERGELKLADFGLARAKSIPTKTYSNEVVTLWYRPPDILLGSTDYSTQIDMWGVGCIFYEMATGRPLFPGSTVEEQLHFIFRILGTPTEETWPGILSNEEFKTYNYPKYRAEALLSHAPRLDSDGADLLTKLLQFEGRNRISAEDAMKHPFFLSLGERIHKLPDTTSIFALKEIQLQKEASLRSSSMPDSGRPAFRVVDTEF
Chain of CDK16/CycY (Q8ND76 whole entry partner): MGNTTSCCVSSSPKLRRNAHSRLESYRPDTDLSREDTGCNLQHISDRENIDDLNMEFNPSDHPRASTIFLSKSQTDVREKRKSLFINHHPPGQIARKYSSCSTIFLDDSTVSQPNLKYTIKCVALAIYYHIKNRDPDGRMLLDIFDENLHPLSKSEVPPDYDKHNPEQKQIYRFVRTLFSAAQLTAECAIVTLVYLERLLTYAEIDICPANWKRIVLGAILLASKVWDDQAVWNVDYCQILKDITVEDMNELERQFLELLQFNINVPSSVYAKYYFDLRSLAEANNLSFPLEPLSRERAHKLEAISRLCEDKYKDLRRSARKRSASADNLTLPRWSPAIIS
Chain of CDK6/cycD3 (Q00534 whole entry): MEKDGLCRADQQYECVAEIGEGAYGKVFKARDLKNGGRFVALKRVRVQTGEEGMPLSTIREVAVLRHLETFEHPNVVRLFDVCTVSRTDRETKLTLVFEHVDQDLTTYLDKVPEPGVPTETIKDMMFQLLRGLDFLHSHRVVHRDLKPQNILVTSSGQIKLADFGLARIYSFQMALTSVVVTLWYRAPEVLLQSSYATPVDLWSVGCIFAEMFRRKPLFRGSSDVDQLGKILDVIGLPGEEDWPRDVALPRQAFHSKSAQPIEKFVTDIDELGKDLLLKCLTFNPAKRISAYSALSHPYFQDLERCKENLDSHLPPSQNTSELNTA
Chain of CDK6/cycD3 (P30281 whole entry partner): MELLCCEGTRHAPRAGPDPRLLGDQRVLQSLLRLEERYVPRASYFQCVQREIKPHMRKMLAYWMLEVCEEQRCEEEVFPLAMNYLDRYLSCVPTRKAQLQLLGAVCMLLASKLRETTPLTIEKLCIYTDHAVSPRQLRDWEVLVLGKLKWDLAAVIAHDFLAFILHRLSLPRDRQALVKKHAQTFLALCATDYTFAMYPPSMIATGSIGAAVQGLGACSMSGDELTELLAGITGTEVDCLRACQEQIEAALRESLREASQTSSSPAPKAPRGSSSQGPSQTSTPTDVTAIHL
Chain of CDK9/CycT1 (P50750 whole entry): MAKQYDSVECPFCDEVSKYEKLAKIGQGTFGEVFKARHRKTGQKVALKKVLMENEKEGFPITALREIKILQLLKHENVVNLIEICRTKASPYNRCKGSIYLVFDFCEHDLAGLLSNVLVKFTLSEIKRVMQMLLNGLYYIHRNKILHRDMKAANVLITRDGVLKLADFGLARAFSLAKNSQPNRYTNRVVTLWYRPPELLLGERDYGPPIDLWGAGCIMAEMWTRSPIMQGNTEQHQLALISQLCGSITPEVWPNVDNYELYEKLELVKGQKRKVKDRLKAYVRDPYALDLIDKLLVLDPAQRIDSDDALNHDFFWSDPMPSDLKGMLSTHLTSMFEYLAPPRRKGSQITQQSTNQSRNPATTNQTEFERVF
Chain of CDK9/CycT1 (O60563 whole entry partner): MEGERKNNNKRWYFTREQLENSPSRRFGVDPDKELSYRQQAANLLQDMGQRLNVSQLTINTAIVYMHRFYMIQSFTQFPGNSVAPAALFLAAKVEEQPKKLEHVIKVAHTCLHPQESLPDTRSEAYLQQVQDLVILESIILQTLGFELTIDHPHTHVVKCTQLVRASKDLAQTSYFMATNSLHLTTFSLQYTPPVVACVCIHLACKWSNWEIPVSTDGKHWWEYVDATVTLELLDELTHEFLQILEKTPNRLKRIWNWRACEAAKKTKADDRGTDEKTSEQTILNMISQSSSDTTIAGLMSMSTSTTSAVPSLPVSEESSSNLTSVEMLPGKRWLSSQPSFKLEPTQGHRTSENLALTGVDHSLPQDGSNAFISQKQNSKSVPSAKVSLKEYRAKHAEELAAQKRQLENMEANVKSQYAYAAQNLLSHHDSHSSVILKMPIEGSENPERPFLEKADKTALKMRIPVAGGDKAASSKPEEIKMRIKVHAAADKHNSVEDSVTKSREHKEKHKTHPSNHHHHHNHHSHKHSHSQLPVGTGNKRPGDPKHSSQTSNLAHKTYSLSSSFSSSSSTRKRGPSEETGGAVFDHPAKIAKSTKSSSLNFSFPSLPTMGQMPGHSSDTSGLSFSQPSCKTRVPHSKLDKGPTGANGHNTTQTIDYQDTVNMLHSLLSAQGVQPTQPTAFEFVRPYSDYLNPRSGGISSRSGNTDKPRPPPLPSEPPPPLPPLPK
Chain of TRKA (P04629 33-796): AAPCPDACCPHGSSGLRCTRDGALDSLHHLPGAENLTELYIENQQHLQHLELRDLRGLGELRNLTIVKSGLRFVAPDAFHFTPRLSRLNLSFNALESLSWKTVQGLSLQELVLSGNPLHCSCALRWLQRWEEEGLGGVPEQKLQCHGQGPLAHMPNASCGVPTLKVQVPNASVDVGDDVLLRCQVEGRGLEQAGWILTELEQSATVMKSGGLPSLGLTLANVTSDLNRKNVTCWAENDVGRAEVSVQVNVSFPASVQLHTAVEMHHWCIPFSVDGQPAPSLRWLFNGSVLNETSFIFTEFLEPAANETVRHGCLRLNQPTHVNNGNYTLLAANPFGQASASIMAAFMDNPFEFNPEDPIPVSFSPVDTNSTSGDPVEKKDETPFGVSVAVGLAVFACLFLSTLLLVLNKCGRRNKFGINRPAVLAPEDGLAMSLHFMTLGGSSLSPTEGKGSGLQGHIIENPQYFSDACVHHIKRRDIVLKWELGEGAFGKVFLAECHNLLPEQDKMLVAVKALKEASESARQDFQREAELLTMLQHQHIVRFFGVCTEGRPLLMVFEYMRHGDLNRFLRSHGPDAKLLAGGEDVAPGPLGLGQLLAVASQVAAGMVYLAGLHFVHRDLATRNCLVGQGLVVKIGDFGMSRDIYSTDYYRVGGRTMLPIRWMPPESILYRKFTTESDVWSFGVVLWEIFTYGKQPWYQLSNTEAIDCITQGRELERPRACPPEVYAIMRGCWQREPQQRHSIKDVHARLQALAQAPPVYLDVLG
Chain of CDK4/CycD3 (P11802 whole entry): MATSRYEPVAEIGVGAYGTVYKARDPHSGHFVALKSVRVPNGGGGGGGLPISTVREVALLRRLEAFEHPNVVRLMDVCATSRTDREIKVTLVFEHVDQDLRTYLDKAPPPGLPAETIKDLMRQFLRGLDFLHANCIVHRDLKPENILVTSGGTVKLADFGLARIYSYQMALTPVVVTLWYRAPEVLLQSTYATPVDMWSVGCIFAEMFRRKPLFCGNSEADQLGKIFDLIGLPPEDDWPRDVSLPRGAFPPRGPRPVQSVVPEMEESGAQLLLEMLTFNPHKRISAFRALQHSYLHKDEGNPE
Chain of CDK4/CycD3 (P30281 whole entry partner): as the sequence (P30281 whole entry partner) above
Chain of CDK5/p35NCK (Q00535 whole entry): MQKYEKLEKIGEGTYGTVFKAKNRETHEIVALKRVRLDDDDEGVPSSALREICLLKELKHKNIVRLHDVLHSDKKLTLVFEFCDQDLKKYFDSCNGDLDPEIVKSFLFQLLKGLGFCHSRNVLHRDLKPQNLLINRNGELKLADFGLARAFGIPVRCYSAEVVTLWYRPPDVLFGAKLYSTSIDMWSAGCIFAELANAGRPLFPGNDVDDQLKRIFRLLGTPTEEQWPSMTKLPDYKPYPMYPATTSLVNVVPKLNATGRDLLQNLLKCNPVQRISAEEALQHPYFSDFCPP
Chain of CDK5/p35NCK (Q15078 whole entry partner): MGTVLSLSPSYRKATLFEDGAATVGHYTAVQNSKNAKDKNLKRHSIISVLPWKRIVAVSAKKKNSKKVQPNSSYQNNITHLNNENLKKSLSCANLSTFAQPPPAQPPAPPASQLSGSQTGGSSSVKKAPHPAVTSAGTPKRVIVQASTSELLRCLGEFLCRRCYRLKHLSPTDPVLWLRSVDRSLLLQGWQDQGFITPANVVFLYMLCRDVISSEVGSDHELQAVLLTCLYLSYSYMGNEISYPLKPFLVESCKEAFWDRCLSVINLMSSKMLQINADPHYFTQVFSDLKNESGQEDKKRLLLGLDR

CC(=O)c1c(C)c2cnc(Nc3ccc4c(c3)OC[C@@H]3CN(C5CCN(C)CC5)CCN43)nc2n(C2CCCC2)c1=O [Compound 2S]
IC50 (CDK16/CycY): < 100 nM | IC50 (CDK4/CycD3): < 10 nM | IC50 (CDK2/CycA2): < 100 nM | IC50 (CDK9/CycT1): < 20 nM | half-life [1]: > 12 h | AUC(0-t) (in vivo): 1910 ng·h/mL | Cmax (in vivo): 114 ng/mL | Tmax (in vivo): 13.3 h | IC50 (CDK6/cycD3): < 10 nM | IC50 (CDK5/p35NCK): < 50 nM | IC50 (TRKA): < 10 nM

CC(=O)c1c(C)c2cnc(Nc3ccc4c(c3)OC[C@H]3CN(C5CCN(C(C)=O)CC5)CCN43)nc2n(C2CCCC2)c1=O [Compound 5R]
IC50 (CDK16/CycY): < 200 nM | IC50 (CDK4/CycD3): < 10 nM | IC50 (CDK2/CycA2): < 100 nM | IC50 (CDK9/CycT1): < 50 nM | AUC(0-t) [1]: 4350 ng·h/mL | Cmax [1]: 438 ng/mL | Tmax [1]: 6.67 h | half-life [1]: 2.91 h | IC50 (CDK6/cycD3): < 20 nM | IC50 (CDK5/p35NCK): < 200 nM | IC50 (TRKA; [2]): < 10 nM

CC(=O)c1c(C)c2cnc(Nc3ccc4c(c3)OC[C@@H]3CN(C5CN(C)C5)CCN43)nc2n(C2CCCC2)c1=O [Compound 7S]
IC50 (CDK16/CycY): < 100 nM | IC50 (CDK4/CycD3): < 10 nM | IC50 (CDK2/CycA2): < 100 nM | IC50 (CDK9/CycT1): < 50 nM | AUC(0-t) [1]: 1940 ng·h/mL | Cmax [1]: 133 ng/mL | Tmax [1]: 9.33 h | half-life [1]: 3.19 h | IC50 (CDK6/cycD3): < 10 nM | IC50 (CDK5/p35NCK): < 100 nM | IC50 (TRKA; [2]): < 10 nM
